System: primary hippocampal neurons overexpressing P301S tau (Tau−/+) and littermate controls (Tau−/−)
Assay: mEPSC recording in primary hippocampal neurons from PS19 transgenic mice expressing P301S tau
Assay type: cell-based, mouse
Conditions: 10 μM; for cumulative curve of mEPSC amplitudes, Tau−/+ compared with Tau−/−: Mann-Whitney U test; for average amplitude of mEPSC responses in Tau−/+ versus Tau−/− neurons: 3 days in culture media
Description: For these studies, PS19 transgenic mice expressing P301S mutant tau, one of the most used models of FTDP-17 were used (Feinstein S. Faculty Opinions recommendation of Synapse loss and microglial activation precede tangles in a P301S tauopathy mouse model. Faculty Opinions—Post-Publication Peer Review of the Biomedical Literature. 2007; and Takeuchi H, et al., PLoS One., 2011, 6, e21050). To detect functional deficits, primary hippocampal neurons were cultured from heterozygous transgenic mice overexpressing P301S tau (Feinstein S. Faculty Opinions recommendation of Synapse loss and microglial activation precede tangles in a P301S tauopathy mouse model. Faculty Opinions—Post-Publication Peer Review of the Biomedical Literature. 2007; and Takeuchi H, et al., PLoS One., 2011, 6, e21050) and littermate controls, (denoted Tau−/+ and Tau−/− respectively in FIG. 3), and recorded miniature excitatory synaptic currents (mEPSCs).
Briefly, a 22 mm diameter glass coverslip (0.09 mm thickness) was silicone-sealant-fastened to the bottom of a 35 mm culture dish with a bored hole of 20 mm in diameter and sterilized as described by Smith B R, et al., Acta Neuropathologica Communications, 2019, 7(1), 124. Coverslips were coated with poly-D-lysine. Hippocampi were dissected from neonatal Sprague-Dawley timed-pregnancy rats (Envigo) or appropriate transgenic mice and control littermates (see main text) at post-natal day 0-1. Hippocampi were enzymatically digested in Earle's Balanced Salt Solution (EBSS) supplemented with 1% glucose and cysteine-activated papain. Digestion was blocked with dilute BSA (bovine serum albumin) and chicken ovomucoid, and cells were rinsed in fresh EBSS and plated in plating medium (minimal essential medium with Earle's salts, 10% fetal bovine serum, 5% horse serum, 2 mM glutamine, 10 mM sodium pyruvate, 0.6% glucose, 100 U/ml penicillin and […] streptomycin) at 1.0×10^6 cells/dish. After 18 h cell adherence was established. Cells were then grown in a neurobasal medium (a 1:5 mixture of NbActiv4 to NbActiv1; BrainBits LLC) and incubated at 37° C. in a 5% CO2 biological incubator.
Miniature excitatory postsynaptic currents (mEPSCs) were recorded from cultured dissociated mouse hippocampal neurons at 17-21 DIV with a glass pipette (resistance ˜5 MΩ) at holding potentials of −65 mV on an Axopatch 200B amplifier (output gain=0.5; filtered at 1 kHz) as we previously described (Miller E C, et al., Eur J Neurosci., 2014, 39, 214-224). Input and series resistances were assessed and found to have no significant difference before and after recording time (5-20 mins). Recording sweeps lasted 200 ms and were sampled for every 1 s (pClamp, v10, RRID: SCR_011323). Neurons were bathed in bubble-oxygenated artificial cerebrospinal fluid (ACSF) at 23° C. with 100 μM APV (NMDA receptor antagonist), 1 μM TTX (sodium channel blocker), and 100 μM picrotoxin (GABAa receptor antagonist). Passive oxygen perfusion was established with medical-grade 95% O2-5% CO2. ACSF contained (in mM) 119 NaCl, 2.5 KCl, 5.0 CaCl2), 2.5 MgCl2, 26.2 NaHCO3, 1 NaH2PO4, and 11 D-glucose. The internal solution of the glass pipettes contained (in mM) 100 cesium gluconate, 0.2 EGTA, 0.5 MgCl2, 2 ATP, 0.3 GTP, and 40 HEPES. The pH of the internal solution was normalized to 7.2 with cesium hydroxide and diluted to a trace osmotic deficit in comparison to ACSF (˜300 mOsm). All analysis of recordings was performed using an automated detection software suit (Clampfit, 11.0.3, Molecular Devices, San Jose, CA, USA). Minimum analysis parameters were set at greater than 1 min stable recording time and events with amplitudes greater than 3 pA and smaller than 40 pA were included. A mEPSC event was identified by using a template which included a distinct fast-rising depolarization and slow-decaying repolarization. […]

Row | Structure (SMILES) | cumulative curve of mEPSC amplitudes, Tau−/+ compared with Tau−/− (3 days) | average amplitudes of mEPSC responses of Tau−/+ neurons versus those treated with Compound 30a or 30b (3 days) | average amplitude of mEPSC responses in Tau−/+ versus Tau−/− neurons
1 | CC(=O)N[C@H](C(=O)N[C@@H](CC(=O)O)C(=O)N[C@H](C(=O)N1CCc2cc(C)ccc2[C@H]1C(=O)N[C@H](C=O)CC(=O)O)C(C)C)C(C)C [Compound 30b, (S)-3-((S)-2-acetamido-3-methylbutanamido)-4-(((S)-1-((S)-1-(((S)-1-carboxy-3-oxopropan-2-yl)carbamoyl)-6-methyl-3,4-dihydroisoquinolin-2(1H)-yl)-3-methyl-1-oxobutan-2-yl)amino)-4-oxobutanoic acid, reference compound] | shifted to the left but less markedly |  | 
2 | Cc1ccc2c(c1)CCN(C(=O)[C@@H](NC(=O)[C@H](CCCC(=O)O)NC(=O)C1Cc3ccccc3N1)C(C)C)[C@@H]2C(=O)N[C@H](C#N)CC(=O)O (stereo partly drawn) [Compound 1, (8)-6-(((S)-1-((8)-1-(((S)-2-carboxy-1-cyanoethyl)carbamoyl)-6-methyl-3,4-dihydroisoquinolin-2(1H)-yl)-3-methyl-1-oxobutan-2-yl)amino)-5-((S)-indoline-2-carboxamido)-6-oxohexanoic acid] | not significantly shifted | significantly larger | do not differ significantly
3 | CC(=O)N[C@H](C(=O)NC(CC(=O)O)C(=O)N[C@H](C(=O)N1CCc2cc(C)ccc2C1C(=O)N[C@H](C=O)CC(=O)O)C(C)C)C(C)C (stereo in doubt) [Compound 30a, (R)-3-((S)-2-acetamido-3-methylbutanamido)-4-(((S)-1-((S)-1-(((S)-1-carboxy-3-oxopropan-2-yl)carbamoyl)-6-methyl-3,4-dihydroisoquinolin-2(1H)-yl)-3-methyl-1-oxobutan-2-yl)amino)-4-oxobutanoic acid, reference compound] | shifted to the left |  | significantly smaller

Reference: patent US20250188123A1, “PROTEASE INHIBITORS” (Regents of the University of Minnesota, priority 2022, published 2025)
